The source of these data is patent publication US5519010A, “Sulfated polysaccharide, pharmaceutically acceptable salt thereof, process for preparing same and medicament containing same as effective component” (Taiho Pharmaceutical Co., Ltd., priority 1989, dated 1996).

Assay [1] deals with DIC model (thrombin injected into ICR mice). As to the kind of experiment: Effect on DIC model (thrombin-induced fatality, survival rate). Format: in vivo. Particulars: dose 1 mg/kg i.v. one minute before 800 U/kg thrombin; after 24 hours. Here is the method: D-HG, FGAG and heparin were tested for an effect on DIC model in accordance with the method described in Japan J. Pharmacol, 35, 203-227 (1984).
Used as D-HG was the sodium salt obtained in Example 16, as FGAG the sodium/potassium salt obtained in Reference Example 1 and as a heparin a sodium salt having a potency of 185.6 U/mg.
A 800 U/kg of thrombin was intravenously injected into ICR mice (10 to 15 mice a group). […] The D-HG sodium salt, FGAG sodium/potassium salt or heparin sodium salt was intravenously injected one minute before the administration of thrombin.

The subject of assay [2] is citric acid-containing plasma (activated partial thromboplastin time). As to the kind of experiment: Anti-coagulation activity in human: x2APTT. Format: biochemical. Particulars: concentration required to double APTT of control. From the text: (§1) Using the citric acid-containing plasma obtained from more than 6 normal persons, the D-HG sodium salt (Example 16), a FGAG sodium/potassium salt and a heparin sodium salt were each observed for the activity in respect of anticoagulation parameters (μg/ml).

A further assay deals with thrombin. Put plainly: Anti-coagulation activity in human: IIaIC90 (thrombin time). The class given is biochemical. Particulars: concentration for 90% inhibition of thrombin activity, from thrombin time; human plasma. How it is done:
as §1
IIaIC90 is a concentration (μg/ml) for 90% inhibition of thrombin activity which was calculated by measuring the activity to prolong the thrombin time.

Another assay relates to factor X. Put plainly: Anti-coagulation activity in human: XaIC50 (decomposition of synthetic substrate S2222). Format: biochemical. Particulars: 50% inhibition of decomposition of synthetic substrate S2222.
Source text: as §1
XaIC50 is a medicament concentration (μg/ml) for 50% inhibition of decomposition of synthetic substrate S2222 with a factor X.

In a further assay the test system is factor VIII. Put plainly: Anti-coagulation activity in human: VIII IC80 (factor VIII deficient plasma). Particulars: 80% inhibition of factor VIII, contact-activated coagulation time. Format: biochemical. Here is the method:
as §1
VIII IC80 is a medicament concentration (μg/ml) for 80% inhibition of factor VIII which was calculated by measuring the activity to prolong the contact-activated coagulation time in the presence of a small amount of factor VIII using a factor VIII deficient plasma.

Assay [3] relates to thrombin generation (inactivation of prothrombin in contact-activated plasma). Put plainly: Anti-coagulation activity in human: IIaGI (thrombin generation). The class given is biochemical. Particulars: concentration required to double control's time for complete inactivation of prothrombin in contact-activated plasma.
Source text: as §1
IIaGI is the concentration (μg/ml) required to double the control's time for complete inactivation of prothrombin in the contact-activated plasma. This represents an activity to inhibit the thrombin generation.

The subject of assay [4] is plasma-free washed platelet. Put plainly: Inhibitory activity against thrombin-induced platelets aggregation. Format: cell-based. To be noted: 3 μg/ml; 0.1 U/ml thrombin; rabbit washed platelets (control 86.6). Here is the method:
The result of addition of the D-HG sodium salt obtained in Example 16 or a heparin sodium salt having a potency of 185.6 U/mg was evaluated by observing the aggregation of platelets (expressed in an increase of light transmittance) caused by the addition of 0.1 U/ml of thrombin to a suspension of plasma-free washed platelet obtained from a rabbit.

For heparin [Heparin sodium salt], in assay [1], the Survival rate is given as 80%. In assay [2], this substance yielded a x2APTT of 1.2 µg/mL. The IIaIC90 in the assay with thrombin worked out at 0.3 µg/mL. This substance showed a XaIC50 in the assay on factor X of 3.4 µg/mL. The “VIII IC80” value with factor VIII was determined as 0.79 µg/mL. This substance also came in with an IIaGI in assay [3] of 1.2 µg/mL. Besides, in assay [4], the Light transmittance was determined as 80.2%.
